Measured values: patent US20220323391A1, “COMBINATION OF A CHEMOTHERAPEUTIC AGENT AND ALPHA-LACTOGLUBULIN-OLEIC ACID COMPLEX FOR CANCER THERAPY” (HAMLET PHARMA AB, priority 2019, published 2022)
Entries after “also recorded” stand apart in the source; their conditions may differ.

Test system: MB49 mouse bladder carcinoma cells
Test: murine MB49 bladder cancer model, intravesical treatment
Type: in vivo
Details: for Tumor growth / tumor progression (bladder weight, bladder size, tumor size) compared to sham treated mice: chemotherapeutic agent alone, 25 μg intravesical, days 3, 5, 7, 9 and 11; for Tumor growth / tumor recurrence at long-term follow up: single agent (alpha1-oleate 1.7 mM, or MMC or Epirubicin 25 μg), after 4 weeks
Description: MB49 (RRID:CVCL_7076) cells were provided by Sara Mangsbo, Uppsala University, Sweden. […] C57BL/6 female mice were bred at the Department of Laboratory Medicine, Lund University and used at ages from 7 to 12 weeks. […] On day 0, the bladder was emptied and preconditioned by intravesical instillation of 100 μl of poly-L-lysine solution (0.1 mg/ml) through a soft polyethylene catheter (Clay Adams) with an outer diameter of 0.61 mm. After 30 minutes, MB49 mouse bladder carcinoma cells (2×10^5 cells in 50 μl media) were instilled. On days 3, 5, 7, 9 and 11, mice were randomly assigned and instilled to the alpha1-oleate (1.7 mM or 8.5 mM), chemotherapeutic drugs (MMC 25 μg, epirubicin 25 μg), combination of alpha1-oleate with chemotherapeutic agent or sham PBS treatment group. The catheter was left in place for about one minute, but as the mice remained under anesthesia, the time to voiding (dwelling time) of the substance was 2-3 hours. Groups of 5-6 mice for each treatment and control were sacrificed at day 12. Follow up groups of 5-8 mice were sacrificed at week 4 and week 8. Bladders were imaged and processed for histology or RNA extraction. Two independent experiments were performed for each condition. All experiments were performed with mycoplasma-free cells.
Bladders were embedded in O.C.T. compound (VWR), and successive 5 μm sections were collected from the center of each bladder and placed on positively-charged microscope slides (Superfrost/Plus; Thermo Fisher Scientific). […] Images was captured using the AX10 microscope (Carl Zeiss). The tumor circumferences were measured for analysis of the tumor area using ImageJ software.
The effects of alpha1-oleate and Mitomycin C were investigated in the murine MB49 bladder cancer model (for study design see FIG. 19A). Bladder cancer was established by intra-vesical instillation of MB49 cells and treatment was initiated on day 3. The treatment group received alpha1-oleate (1.7 mM or 8.5 mM), MMC (0.1 mL, 25 ug/dose) or a combination of alpha1-oleate (1.7 mM or 8.5 mM) with MMC (0.1 mL, 25 ug/dose). Instillations were performed on days 3, 5, 7, 9 and 11 and sham treated mice received PBS. Bladders were harvested at sacrifice on day 12 and tumor development was quantified as bladder weight, bladder size, tumor size and pathology score (FIG. 21c-f).

| Compound | Therapeutic effect of Epirubicin alone relative to alpha1-oleate (Epirubicin 25 μg vs alpha1-oleate 1.7 mM, day 12, p=0.97) | Tumor growth / tumor progression (bladder weight, bladder size, tumor size) compared to sham treated mice (day 12) | Tumor growth / tumor recurrence at long-term follow up | Tumor growth / tumor progression (bladder weight, bladder size, tumor size) compared to sham treated mice (day 12, listed as MMC) | Tumor growth / tumor progression (bladder weight, bladder size, tumor size) compared to sham treated mice (day 12, listed as mitomycin) | Tumor growth / tumor recurrence at long-term follow up (listed as MMC) |
| --- | --- | --- | --- | --- | --- | --- |
| COc1cccc2c1C(=O)c1c(O)c3c(c(O)c1C2=O)C[C@@](O)(C(=O)CO)C[C@@H]3O[C@H]1C[C@H](N)[C@@H](O)[C@H](C)O1 [Epirubicin] | comparable to that of alpha1-oleate | Tumor progression was delayed; also recorded: reduction in tumor size | Evidence of tumor recurrence; also recorded: showed an increase in tumor growth | – | – | – |
| CO[C@@]12[C@H](COC(N)=O)C3=C(C(=O)C(C)=C(N)C3=O)N1C[C@@H]1N[C@@H]12 [Mitomycin C] | – | Tumor progression was delayed | – | reduction in tumor size | attenuated to a similar extent | Evidence of tumor recurrence; also recorded: showed an increase in tumor growth |
